Results on four molecules are retold here after PMC8398714, “Synthesis and Evaluation of Biological Activities of Bis(spiropyrazolone)cyclopropanes: A Potential Application against Leishmaniasis” (Molecules, 2021).

One experiment has as its system PC-3. The experiment in a line: MTS cell viability assay on PC-3 cells. It counts as cell-based. The following applies: Homo sapiens, 48 h; for inhibition at 100 µM: Dox 1 µM, mean ± SEM, NA = no activity, read-out: Percentage (%) of inhibition, PC-3; for IC50: 15-150 µM, mean ± SEM of triplicates.
Experiment [1] in a line: MTS cell viability assay on A-549 cells. It counts as cell-based. The following applies: Homo sapiens; 48 h, 15-150 µM, mean ± SEM of triplicates. On the technique in general: Tetrazolium dyes change colour on reduction, which living cells bring about.
The subject of the next experiment is MCF-7. The experiment in a line: MTS cell viability assay on MCF-7 cells. It counts as cell-based. To be noted: Homo sapiens, MCF7, 48 h, Dox 1 µM, mean ± SEM, NA = no activity, read-out: Percentage (%) of inhibition, MCF-7.
A further experiment has as its system CHO-K1. Kind of experiment: MTS cell viability assay on immortalized CHO-K1 cells. To be noted: 48 h, Dox 1 µM, mean ± SEM, NA = no activity, read-out: Percentage (%) of inhibition, CHO-K1. The class given is cell-based, hamster.
The test system of experiment [2] is promastigotes of Leishmania mexicana. Kind of experiment: Leishmanicidal activity, MTT assay on promastigotes. The class given is cell-based. To be noted: for SI (Selectivity Index) = Citotoxic activity/Leishmanicidal activity: CC50 RAW / IC50 L. mexicana; for IC50: Leishmania mexicana. On the procedure: The leishmanicidal activity of all compounds was evaluated by measuring promastigotes’ mitochondrial activity using MTT colorimetric assay as described previously. In this study, promastigotes from Leishmania mexicana were used. The species were confirmed by amplifying and sequencing cytochrome b gene. Promastigotes were cultured at 25 °C in Schneider’s Drosophila Medium (Gibco, Invitrogen, Carlsbad, CA, USA) supplemented with 10% fetal bovine serum (Eurobio, Les Ulis, France). The medium was renewed every third day. Parasite density was determined by counting the cells using a Neubauer chamber.
Into each well of a 96-well plate were dispensed 1 × 10^6 parasites/well. A stock solution of the compounds was prepared in DMSO (Sigma Aldrich, Saint Louis, MO, USA), and serial dilutions were added to the parasite suspension, leading to concentrations ranging from 100 to 0.001 µM, keeping the solvent concentration at 0.5%. The final volume was 200 µL for each well and triplicate conditions were carried out. Amphotericin B (Gibco) treatment (1 µM) untreated parasites and DMSO 0.5% were used as positive and negative controls, respectively. After exposure to the compounds for 48 h in culture medium, 20 µL of a solution of 5 mg/mL MTT dissolved in PBS were added to each well. The plate was incubated at 25 °C for 2 h in darkness. The plate was then centrifuged at 4400 rpm for 10 min and the culture medium was then aspirated; 50 µL of DMSO were added into each well to solubilize the formazan crystals and the plate was shaken for 5 min and then it was measured by recording changes in absorbance at 570 nm using a microplate reader Cytation 5 (BioTek) spectrophotometer. A reference wavelength of 630 nm was used as background subtraction. Optical densities were analyzed because the quantity of formazan is directly proportional to the number of viable parasites. Data were analyzed with the statistical software GraphPad Prism 7.02 (GraphPad Software, Corp.).

In experiment [3] the test system is Leishmania mexicana cells. The experiment in a line: Comet assay of Leishmania mexicana cells. To be noted: L. mexicana, 24 h at MIC; for Comet tail length, mean (vary) / Comet tail length, median (Q50): MMS 0.011%, Kruskal-Wallis $means; for Genotoxic effect (DNA breaks) in comet assay: in words. The class given is cell-based. More on the design: Comet tail length, mean (vary) / Comet tail length, median (Q50): unit not given here. On the procedure: We quantified DNA breaks by a comet assay to determine if these compounds are genotoxic. Here, L. mexicana cells were exposed for 24 h to MIC concentrations previously determined (see Materials and Methods Section) for each compound. Figure 1 represents the measurements obtained for tail length. All compounds generated DNA breaks expect 4s. […] Samples with DMSO and MMS (0.011%) were included as controls. Some representative pictures are shown at Figure S4. The effect of 4p could not be determined because the cells appear to be very damaged. The data was subjected via a Kruskal–Wallis one-way ANOVA (Statistical Analyses S2). […] These observations support a mechanism of action through the generation of DNA damage.
For leishmania, a method previously described for yeast was adapted. Briefly, after incubating the cells in presence of the compounds for 24 h, cells were collected and washed with buffer S (1 M sorbitol, 25 mM KH2PO4 in ultrapure water and adjust to pH 6.5 with NaOH). The pellet was resuspended in 400 µL of 1.5% LMA and 40 µL was spread (second layer) onto previously agarose-coated slides (first layer).
Slides were immersed in cold lysis buffer (30 mM NaOH, 1 M NaCl, 0.05 % (w/v) lauroylsarcosine, 50 mM EDTA, and 10 mM Tris–HCl, pH 10) for 25 min and then in cold electrophoresis alkaline buffer (30 mM NaOH, 10 mM EDTA, and 10 mM Tris–HCl, pH 10). They were then subjected to electrophoresis at 26V and 300 mA. Slides were immersed in neutralization buffer (10 mM Tris–HCl, pH 7.4; prepared in advance and stored at 4 °C) for 10 min at room temperature. The cells were then treated with proteinase K (20 min, 37 °C in humid chamber), followed by a new neutralization step. To dehydrate the slides, they were immersed in EtOH 90% and EtOH absolute for 10 min each. Finally, the slides were stained with Sybr Gold 1X.
The DNA migration was analyzed using a LEICA microscope with fluorescence (40×) by scoring 100 cells per slide in duplicate. The tail moment parameter was then analyzed by the Comet Score software.

The mark [4] stands for this setting: read-out: IC50 original values, x.1 (Mean).
The mark [5] stands for this setting: L. mexicana promastigotes, 48 h, MTT, read-out: Leishmanicidal Activity IC50.

“Also recorded” adds a separate entry of the source. Like-named read-outs stand apart in the source and are kept apart here.

By inhibition is commonly meant the drop in the measured response relative to a control, in per cent. Usually IC50 stands for the point on the concentration scale where inhibition reaches its midpoint. Take `CC1=NN(c2ccccc2)C(=O)[C@@]12C(c1cccc([N+](=O)[O-])c1)[C@@]21C(=O)N(c2ccccc2)N=C1C` (relative stereo) [4d, (5R*,6R*)-11-(3-Nitrophenyl)-4,10-dimethyl-2,8-diphenyl-2,3,8,9-tetraazadispiro[4.0.4.1]undeca-3,9-diene-1,7-dione]: the inhibition at 100 µM in the experiment with PC-3 was 46.1 ± 1.91%; with MCF-7, 39.4 ± 2.29%; in the experiment on CHO-K1 it was 4.4 ± 0.72%. The IC50 with PC-3 came out at 90.9 ± 2.56 µM; in experiment [1], 94.8 ± 4.54 µM; in experiment [2] (setting [4]) it was 148 nM; in experiment [2] (setting [5]) it was 150 ± 20 nM. In experiment [2], the “SI (Selectivity Index) = Citotoxic activity/Leishmanicidal activity” value worked out at 26.0. The “Comet tail length, mean (vary)” value in experiment [3] stood at 75120000. Besides, in experiment [3], the “Comet tail length, median (Q50)” value was 83500000.

With `COC(=O)c1ccc(C2[C@@]3(C(=O)N(c4ccccc4)N=C3C)[C@]23C(=O)N(c2ccccc2)N=C3C)cc1` (relative stereo) [4q, (5R*,6R*)-Methyl-4[4,10-dimethyl-2,8-diphenyl-2,3,8,9-tetraazadispiro[4.0.4.1]undeca-3,9-diene-1,7-dione-11-yl]benzoate], the inhibition at 100 µM is 50.5 ± 2.38% with PC-3, 32.5 ± 2.33% in the experiment with MCF-7 and 2.29 ± 2.6% in the experiment with CHO-K1. Moreover, the IC50 in the experiment on PC-3 was found to be 109 ± 2.77 µM; in experiment [1] it was 85.1 ± 10.5 µM; in experiment [2] (setting [4]), 277 nM; in experiment [2] (setting [5]) it was 280 ± 40 nM. In addition, the “SI (Selectivity Index) = Citotoxic activity/Leishmanicidal activity” value in experiment [2] is on record as 14.3. Moreover, the “Genotoxic effect (DNA breaks) in comet assay” value in experiment [3] was “highest genotoxic activity; also recorded: strongest effects”. In addition, the “Comet tail length, mean (vary)” value in experiment [3] came out at 172025000. Besides, in experiment [3], the “Comet tail length, median (Q50)” value is on record as 177500000.

With `CC1=NN(c2ccccc2)C(=O)[C@@]12C(c1ccc(C(F)(F)F)cc1)[C@@]21C(=O)N(c2ccccc2)N=C1C` (relative stereo) [4r, (5R*,6R*)-11-(4-Trifluoromethylphenyl)-4,10-dimethyl-2,8-diphenyl-2,3,8,9-tetraazadispiro[4.0.4.1]undeca-3,9-diene-1,7-dione], the values for the inhibition at 100 µM with PC-3, with MCF-7 and in the experiment with CHO-K1 were 54.7 ± 1.95%, 45.8 ± 2.11% and 4.74 ± 3.04%, respectively. Further, the IC50 in the experiment with PC-3 is 49.8 ± 5.51 µM; in experiment [1] it was 78.7 ± 7.9 µM; in experiment [2] (setting [4]) it was 188 nM; in experiment [2] (setting [5]), 190 ± 60 nM. Moreover, in experiment [2], the “SI (Selectivity Index) = Citotoxic activity/Leishmanicidal activity” value was determined as 34.2. For the same molecule, in experiment [3], the “Comet tail length, mean (vary)” value worked out at 96310000. Further, in experiment [3], the “Comet tail length, median (Q50)” value is 98500000.

Take `CC1=NN(c2ccccc2)C(=O)[C@@]12C(c1ccc(OC(F)(F)F)cc1)[C@@]21C(=O)N(c2ccccc2)N=C1C` (relative stereo) [4s, (5R*,6R*)-11-(4-Trifluoromethoxyphenyl)-4,10-dimethyl-2,8-diphenyl-2,3,8,9-tetraazadispiro[4.0.4.1]undeca-3,9-diene-1,7-dione]: the inhibition at 100 µM amounted to 49.7 ± 2.11% with PC-3 and 9.91 ± 3.37% with MCF-7. In addition, the IC50 came out at 70.3 ± 1.9 µM in the experiment on PC-3, 78.5 ± 7.08 µM in experiment [1], 189 nM in experiment [2] (setting [4]) and 190 ± 70 nM in experiment [2] (setting [5]). The “SI (Selectivity Index) = Citotoxic activity/Leishmanicidal activity” value in experiment [2] was 45.3. Moreover, the “Genotoxic effect (DNA breaks) in comet assay” value in experiment [3] is listed as “weakest”. The “Comet tail length, mean (vary)” value in experiment [3] worked out at 39720000. Also, the “Comet tail length, median (Q50)” value in experiment [3] turned out to be 39500000.
